{
  "source": "patent US8241862B2",
  "about": "“Perinucleolar compartment as a cancer marker” (Northwestern University, priority 2002, dated 2012)",
  "system": "HeLa cells",
  "experiment": "Effect of chemotherapeutic drugs on PNC prevalence in cultured HeLa cells",
  "type": "cell-based, human",
  "method": "Cultured HeLa cells, whose PNC prevalence is above 95%, were treated with various chemotherapeutic drugs.",
  "note": "*1 amine or outer side, *2 acyl side, *3 side chain or, on linkers, in order; H or OH if unused. Where a SMILES comes first, the peptide text is derived from it. Bridges are numbered along the chain shown (N, C = ends). Roman numbers before positions name the chains, in order. [ ]: non-standard residue; d: D form. Actinocin(9to1) = Cc1c2oc3c(C)ccc(C(=O)[*:1])c3nc-2c(C(=O)[*:2])c(N)c1=O; NMeV = CN[C@H](C(=O)O)C(C)C; Sar = CNCC(=O)O",
  "data": [
    {"smiles": "O=c1[nH]cc(F)c(=O)[nH]1", "note": "[5′-fluorouracil]", "values": [
      {"measurement": "Effect on PNC", "setting": "1 to 5 μg/ml, 16 hours", "result": "No effect on PNC structure"}
    ]},
    {"smiles": "COc1cc(NS(C)(=O)=O)ccc1Nc1c2ccccc2nc2ccccc12", "note": "[AMSA]", "values": [
      {"measurement": "Effect on PNC", "setting": "5 to 40 μM, 16 hours", "result": "No effect on PNC structure"}
    ]},
    {"smiles": "Cc1c2oc3c(C)ccc(C(=O)N[C@@H]4C(=O)N[C@H](C(C)C)C(=O)N5CCC[C@H]5C(=O)N(C)CC(=O)N(C)[C@@H](C(C)C)C(=O)O[C@@H]4C)c3nc-2c(C(=O)N[C@@H]2C(=O)N[C@H](C(C)C)C(=O)N3CCC[C@H]3C(=O)N(C)CC(=O)N(C)[C@@H](C(C)C)C(=O)O[C@@H]2C)c(N)c1=O", "note": "[Actinomycin D] (I: T[dV]P[Sar][NMeV] / II: T[dV]P[Sar][NMeV]; ester I:1-I:C, II:1-II:C; linker I:N-II:N via Actinocin(9to1))", "values": [
      {"measurement": "Effect on PNC (cell negative for PNC)", "setting": "0.04 μg/ml, 2 hours", "result": 100, "unit": "% cell negative for PNC"}
    ]},
    {"smiles": "COc1cccc2c1C(=O)c1c(O)c3c(c(O)c1C2=O)C[C@@](O)(C(=O)CO)C[C@@H]3O[C@H]1C[C@H](N)[C@H](O)[C@H](C)O1", "note": "[Adriamycin]", "values": [
      {"measurement": "Effect on PNC", "setting": "5 to 40 μM, 16 hours", "result": "No effect on PNC structure"}
    ]},
    {"smiles": "CC[C@@]1(O)C(=O)OCc2c1cc1n(c2=O)Cc2cc3ccccc3nc2-1", "note": "[Campothecin]", "values": [
      {"measurement": "Effect on PNC (cell negative for PNC)", "setting": "1.25 to 2.5 μg/ml, 1 hour", "result": 100, "unit": "% cell negative for PNC"}
    ]},
    {"smiles": "N.N.[Cl][Pt][Cl]", "note": "[Cisplatin]", "values": [
      {"measurement": "Effect on PNC (cell negative for PNC)", "setting": "0.5 μg/ml, 5 hours", "result": 95, "unit": "% cell negative for PNC"}
    ]},
    {"smiles": "Nc1ccn([C@@H]2O[C@H](CO)[C@@H](O)[C@@H]2O)c(=O)n1", "note": "[Cytosine Arabinoside]", "values": [
      {"measurement": "Effect on PNC", "setting": "10 to 40 μg/ml, 16 hours", "result": "No effect on PNC structure"}
    ]},
    {"smiles": "NC(=O)NO", "note": "[Hydroxyurea]", "values": [
      {"measurement": "Effect on PNC", "setting": "0.5 to 1.5 μM, 16 hours", "result": "No effect on PNC structure"}
    ]},
    {"smiles": "CN(Cc1cnc2nc(N)nc(N)c2n1)c1ccc(C(=O)N[C@@H](CCC(=O)O)C(=O)O)cc1", "note": "[Methotrexate]", "values": [
      {"measurement": "Effect on PNC (cells negative for PNC)", "setting": "0.5 μg/ml, 16 hours", "result": 30, "unit": "% cells negative for PNC"},
      {"measurement": "Effect on PNC (cells negative for PNC)", "setting": "1.0 μg/ml, 16 hours", "result": 60, "unit": "% cells negative for PNC"},
      {"measurement": "Effect on PNC (cells negative for PNC)", "setting": "2.5 μg/ml, 16 hours", "result": 80, "unit": "% cells negative for PNC"},
      {"measurement": "Response of PNC prevalence to dose", "setting": "0.5 to 2.5 μg/ml, 16 hours", "result": "dose-dependent"}
    ]},
    {"smiles": "CC(=O)O[C@H]1C(=O)[C@@]2(C)[C@H]([C@H](OC(=O)c3ccccc3)[C@]3(O)C[C@H](OC(=O)[C@H](O)[C@@H](NC(=O)c4ccccc4)c4ccccc4)C(C)=C1C3(C)C)[C@]1(OC(C)=O)CO[C@@H]1C[C@@H]2O", "note": "[Paclitaxel]", "values": [
      {"measurement": "Effect on PNC", "setting": "5 to 40 μM, 16 hours", "result": "No effect on PNC structure"}
    ]},
    {"smiles": "CC[C@]1(O)C[C@H]2CN(CCc3c([nH]c4ccccc34)[C@@](C(=O)OC)(c3cc4c(cc3OC)N(C=O)[C@H]3[C@@](O)(C(=O)OC)[C@H](OC(C)=O)[C@]5(CC)C=CCN6CC[C@]43[C@@H]65)C2)C1", "note": "[Vincristine]", "values": [
      {"measurement": "Effect on PNC", "setting": "5 to 40 μM, 16 hours", "result": "No effect on PNC structure"}
    ]}
  ]
}
